Patent US20150376172A1, “FLUORO-[1,3]OXAZINES AS BACE1 INHIBITORS” (HOFFMANN-LA ROCHE INC., priority 2013, published 2015)

Biological target: T1, BACE1 (Homo sapiens, UniProt P56817)
T1 construct: endogenous in cells; host or cells: HEK293 APP cells
Test: Cellular Aβ-lowering assay (Abeta 40 AlphaLISA)
Format: cell-based
Settings: HEK293 APP cells; 18-20 hrs incubation; Aβ 40 in culture supernatants by AlphaLISA; read-out: BACE1 cell act. Aβ40 IC50
Experimental: Cellular Aβ-lowering assay:
The Abeta 40 AlphaLISA Assay can be used. The HEK293 APP cells were seeded in 96 well Microtiter plates in cell culture medium (Iscove's, plus 10% (v/v) fetal bovine serum, penicillin/streptomycin) to about 80% confluency and the compounds were added at a 3× concentration in ⅓ volume of culture medium (final DMSO concentration was kept at 1% v/v). After 18-20 hrs incubation at 37° C. and 5% CO2 in a humidified incubator, the culture supernatants were harvested for the determination of Aβ 40 concentrations using Perkin-Elmer Human Amyloid beta 1-40 (high specificity) Kit (Cat#AL275C).
In a Perkin-Elmer White Optiplate-384 (Cat#6007290), 2 ul culture supernatants were combined with 2 μl of a 10× AlphaLISA Anti-hAβAcceptor beads+Biotinylated Antibody Anti-Aβ1-40 Mix (50 μg/mL/5 nM). After 1 hour room temperature incubation, 16 μl of a 1.25× preparation of Streptavidin (SA) Donor beads (25 μg/mL) were added and incubated for 30 minutes in the Dark. Light Emission at 615 nm was then recorded using EnVision-Alpha Reader. Levels of Aβ 40 in the culture supernatants were calculated as percentage of maximum signal (cells treated with 1% DMSO without inhibitor). The IC50 values were calculated using the Excel XLfit software.

T1 sequence (P56817 46-501): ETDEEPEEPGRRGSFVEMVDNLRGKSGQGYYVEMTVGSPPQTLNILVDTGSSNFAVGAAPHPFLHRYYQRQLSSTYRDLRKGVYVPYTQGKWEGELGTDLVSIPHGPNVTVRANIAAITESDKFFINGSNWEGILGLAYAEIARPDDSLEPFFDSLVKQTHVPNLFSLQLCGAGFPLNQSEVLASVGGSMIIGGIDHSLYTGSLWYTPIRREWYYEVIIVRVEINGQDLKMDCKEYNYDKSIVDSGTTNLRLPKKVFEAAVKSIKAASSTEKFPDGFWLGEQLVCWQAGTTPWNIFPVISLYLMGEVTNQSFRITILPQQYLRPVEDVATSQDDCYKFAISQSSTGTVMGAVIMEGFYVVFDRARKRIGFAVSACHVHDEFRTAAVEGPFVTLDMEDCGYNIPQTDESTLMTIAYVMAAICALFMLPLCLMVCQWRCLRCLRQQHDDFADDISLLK

Q: For C[C@@]1(c2cc(-c3ccccc3)ccc2F)C[C@@H](C(F)(F)F)OC(N)=N1 [Example 41, (4S,6S)-4-(4-Fluorobiphenyl-3-yl)-4-methyl-6-(trifluoromethyl)-5,6-dihydro-4H-1,3-oxazin-2-amine], which IC50 is on record?
A: 6.42 µM

Q: C[C@@]1(c2cc(-c3cncnc3)cs2)C[C@@H](C(F)(F)F)OC(N)=N1 [Example 42, (4S,6S)-4-Methyl-4-(4-(pyrimidin-5-yl)thiophen-2-yl)-6-(trifluoromethyl)-5,6-dihydro-4H-1,3-oxazin-2-amine] was tested. Which IC50 did it give?
A: 2.52 µM

Q: How did the IC50 turn out when C[C@@]1(c2cc(CCc3ccc(C#N)cn3)ccc2F)C[C@@H](C(F)(F)F)OC(N)=N1 [Example 44, 6-(3-((4S,6S)-2-Amino-4-methyl-6-(trifluoromethyl)-5,6-dihydro-4H-1,3-oxazin-4-yl)-4-fluorophenethyl)nicotinonitrile] was run?
A: 2.02 µM

Q: Which IC50 does the source give for NC1=N[C@](CF)(c2cc(-c3nc4ccc(Cl)cc4o3)ccc2F)C[C@@H](C(F)(F)F)O1 [Example 45, (4S,6S)-4-(5-(6-Chlorobenzo[d]oxazol-2-yl)-2-fluorophenyl)-4-(fluoromethyl)-6-(trifluoromethyl)-5,6-dihydro-4H-1,3-oxazin-2-amine] here?
A: 1.64 µM

Q: For C[C@@]1(c2cc(C#Cc3ccc(C#N)nc3)ccc2F)C[C@@H](C(F)(F)F)OC(N)=N1 [Example 46, 5-((3-((4S,6S)-2-amino-4-methyl-6-(trifluoromethyl)-5,6-dihydro-4H-1,3-oxazin-4-yl)-4-fluorophenyl)ethynyl)picolinonitrile], which IC50 is on record?
A: 0.45 µM

Q: For Cc1cc(-c2cncc(-c3ccc(F)c([C@]4(CF)C[C@@H](C(F)(F)F)OC(N)=N4)c3)c2)n[nH]1 [Example 47, (4S,6S)-4-(2-fluoro-5-(5-(5-methyl-1H-pyrazol-3-yl)pyridin-3-yl)phenyl)-4-(fluoromethyl)-6-(trifluoromethyl)-5,6-dihydro-4H-1,3-oxazin-2-amine], which IC50 is on record?
A: 10.6 µM

Q: Which IC50 does the source give for C[C@@]1(c2cc(C#Cc3cncnc3)ccc2F)C[C@@H](C(F)(F)F)OC(N)=N1 [Example 50, (4S,6S)-4-(2-fluoro-5-(pyrimidin-5-ylethynyl)phenyl)-4-methyl-6-(trifluoromethyl)-5,6-dihydro-4H-1,3-oxazin-2-amine] here?
A: 2.66 µM

Q: How did the IC50 turn out when COc1ncc(C#Cc2ccc(F)c([C@]3(C)C[C@@H](C(F)(F)F)OC(N)=N3)c2)cn1 [Example 53, (4S,6S)-4-[2-fluoro-5-[2-(2-methoxypyrimidin-5-yl)ethynyl]phenyl]-4-methyl-6-(trifluoromethyl)-5,6-dihydro-1,3-oxazin-2-amine] was run?
A: 5.65 µM

Q: For C[C@@]1(c2cc(C#Cc3cnc(C#N)nc3)ccc2F)C[C@@H](C(F)(F)F)OC(N)=N1 [Example 54, 5-[2-[3-[(4S,6S)-2-amino-4-methyl-6-(trifluoromethyl)-5,6-dihydro-1,3-oxazin-4-yl]-4-fluorophenyl]ethynyl]pyrimidine-2-carbonitrile], which IC50 is on record?
A: 1.36 µM

Q: With C[C@@]1(c2cc(C#Cc3cncc(Cl)c3)ccc2F)C[C@@H](C(F)(F)F)OC(N)=N1 [Example 55, (4S,6S)-4-(5-((5-chloropyridin-3-yl)ethynyl)-2-fluorophenyl)-4-methyl-6-(trifluoromethyl)-5,6-dihydro-4H-1,3-oxazin-2-amine] as the molecule, how does the IC50 read?
A: 1.17 µM

Q: With C[C@@]1(c2cc(C#Cc3cncc(C#N)c3)ccc2F)C[C@@H](C(F)(F)F)OC(N)=N1 [Example 56, 5-[2-[3-[(4S,6S)-2-amino-4-methyl-6-(trifluoromethyl)-5,6-dihydro-1,3-oxazin-4-yl]-4-fluorophenyl]ethynyl]pyridine-3-carbonitrile] as the molecule, how does the IC50 read?
A: 1.65 µM

Q: COc1cc(C#N)cnc1C#Cc1ccc(F)c([C@]2(CF)C[C@@H](C(F)(F)F)OC(N)=N2)c1 [Example 57, 6-((3-((4S,6S)-2-Amino-4-(fluoromethyl)-6-(trifluoromethyl)-5,6-dihydro-4H-1,3-oxazin-4-yl)-4-fluorophenyl)ethynyl)-5-methoxynicotinonitrile] was tested. Which IC50 did it give?
A: 0.52 µM

Q: How did the IC50 turn out when CCn1cc(C#Cc2ccc(F)c([C@]3(CF)C[C@@H](C(F)(F)F)OC(N)=N3)c2)cn1 [Example 58, (4S,6S)-4-(5-((1-Ethyl-1H-pyrazol-4-yl)ethynyl)-2-fluorophenyl)-4-(fluoromethyl)-6-(trifluoromethyl)-5,6-dihydro-4H-1,3-oxazin-2-amine] was run?
A: 25.7 µM

Q: With N#Cc1cnc(C#Cc2ccc(F)c([C@]3(CF)C[C@@H](C(F)(F)F)OC(N)=N3)c2)c(Cl)c1 [Example 59, 6-((3-((4S,6S)-2-Amino-4-(fluoromethyl)-6-(trifluoromethyl)-5,6-dihydro-4H-1,3-oxazin-4-yl)-4-fluorophenyl)ethynyl)-5-chloronicotinonitrile] as the molecule, how does the IC50 read?
A: 0.79 µM

Q: Which IC50 does the source give for N#Cc1ccc(C#Cc2ccc(F)c([C@]3(CF)C[C@@H](C(F)(F)F)OC(N)=N3)c2)cc1 [Example 60, 4-((3-((4S,6S)-2-Amino-4-(fluoromethyl)-6-(trifluoromethyl)-5,6-dihydro-4H-1,3-oxazin-4-yl)-4-fluorophenyl)ethynyl)benzonitrile] here?
A: 0.65 µM

Q: NC1=N[C@](CF)(c2cc(C#Cc3cncc(Cl)c3)ccc2F)C[C@@H](C(F)(F)F)O1 [Example 61, (4S,6S)-4-(5-((5-Chloropyridin-3-yl)ethynyl)-2-fluorophenyl)-4-(fluoromethyl)-6-(trifluoromethyl)-5,6-dihydro-4H-1,3-oxazin-2-amine] was tested. Which IC50 did it give?
A: 3.49 µM

Q: Which IC50 does the source give for N#Cc1ccc(C#Cc2ccc(F)c([C@]3(CF)C[C@@H](C(F)(F)F)OC(N)=N3)c2)nc1 [Example 62, 6-((3-((4S,6S)-2-Amino-4-(fluoromethyl)-6-(trifluoromethyl)-5,6-dihydro-4H-1,3-oxazin-4-yl)-4-fluorophenyl)ethynyl)nicotinonitrile] here?
A: 0.4 µM

Q: NC1=N[C@](CF)(c2cc(C#Cc3ncc(Cl)cn3)ccc2F)C[C@@H](C(F)(F)F)O1 [Example 63, (4S,6S)-4-[5-[2-(5-Chloropyrimidin-2-yl)ethynyl]-2-fluorophenyl]-4-(fluoromethyl)-6-(trifluoromethyl)-5,6-dihydro-1,3-oxazin-2-amine] was tested. Which IC50 did it give?
A: 0.43 µM

Q: With Cc1cc(C#Cc2ccc(F)c([C@]3(CF)C[C@@H](C(F)(F)F)OC(N)=N3)c2)sn1 [Example 64, (4S,6S)-4-(2-Fluoro-5-((3-methylisothiazol-5-yl)ethynyl)phenyl)-4-(fluoromethyl)-6-(trifluoromethyl)-5,6-dihydro-4H-1,3-oxazin-2-amine] as the molecule, how does the IC50 read?
A: 0.27 µM

Q: Cc1cc(C#Cc2ccc(F)c([C@]3(C)C[C@@H](C(F)(F)F)OC(N)=N3)c2)sn1 [Example 65, (4S,6S)-4-(2-Fluoro-5-((3-methylisothiazol-5-yl)ethynyl)phenyl)-4-methyl-6-(trifluoromethyl)-5,6-dihydro-4H-1,3-oxazin-2-amine] was tested. Which IC50 did it give?
A: 0.059 µM

Q: How did the IC50 turn out when C[C@@]1(c2cc(C#Cc3ccc(C#N)cc3)ccc2F)C[C@@H](C(F)(F)F)OC(N)=N1 [Example 66, 4-((3-((4S,6S)-2-Amino-4-methyl-6-(trifluoromethyl)-5,6-dihydro-4H-1,3-oxazin-4-yl)-4-fluorophenyl)ethynyl)benzonitrile] was run?
A: 0.2 µM

Q: With C[C@@]1(c2cc(C#Cc3ncc(C#N)s3)ccc2F)C[C@@H](C(F)(F)F)OC(N)=N1 [Example 67, 2-((3-((4S,6S)-2-Amino-4-methyl-6-(trifluoromethyl)-5,6-dihydro-4H-1,3-oxazin-4-yl)-4-fluorophenyl)ethynyl)thiazole-5-carbonitrile] as the molecule, how does the IC50 read?
A: 0.95 µM

Q: With C[C@@]1(c2cc(C#Cc3nn(C(F)F)cc3Cl)ccc2F)C[C@@H](C(F)(F)F)OC(N)=N1 [Example 68, (4S,6S)-4-(5-((4-chloro-1-(difluoromethyl)-1H-pyrazol-3-yl)ethynyl)-2-fluorophenyl)-4-methyl-6-(trifluoromethyl)-5,6-dihydro-4H-1,3-oxazin-2-amine] as the molecule, how does the IC50 read?
A: 0.16 µM

Q: With Cc1cc(F)c([C@]2(C)C[C@@H](C(F)(F)F)OC(N)=N2)cc1C#Cc1ncc(C#N)cc1Cl [Example 69, 6-((5-((4S,6S)-2-Amino-4-methyl-6-(trifluoromethyl)-5,6-dihydro-4H-1,3-oxazin-4-yl)-4-fluoro-2-methylphenyl)ethynyl)-5-chloronicotinonitrile] as the molecule, how does the IC50 read?
A: 0.13 µM

Q: Cc1cc(F)c([C@]2(C)C[C@@H](C(F)(F)F)OC(N)=N2)cc1C#Cc1ccc(C#N)cn1 [Example 70, 6-((5-((4S,6S)-2-Amino-4-methyl-6-(trifluoromethyl)-5,6-dihydro-4H-1,3-oxazin-4-yl)-4-fluoro-2-methylphenyl)ethynyl)nicotinonitrile] was tested. Which IC50 did it give?
A: 0.57 µM

Q: Which IC50 does the source give for Cc1cc(F)c([C@]2(C)C[C@@H](C(F)(F)F)OC(N)=N2)cc1C#Cc1nn(C(F)F)cc1Cl [Example 71, (4S,6S)-4-(5-((4-Chloro-1-(difluoromethyl)-1H-pyrazol-3-yl)ethynyl)-2-fluoro-4-methylphenyl)-4-methyl-6-(trifluoromethyl)-5,6-dihydro-4H-1,3-oxazin-2-amine] here?
A: 0.18 µM

Q: For Cc1cc(F)c([C@]2(C)C[C@@H](C(F)(F)F)OC(N)=N2)cc1C#Cc1ncc(Cl)cn1 [Example 72, (4S,6S)-4-(5-((5-Chloropyrimidin-2-yl)ethynyl)-2-fluoro-4-methylphenyl)-4-methyl-6-(trifluoromethyl)-5,6-dihydro-4H-1,3-oxazin-2-amine], which IC50 is on record?
A: 0.11 µM
